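Growth conditions: 96-well plates. Treatment: test compound, 48 hours, 5 concentrations. Analysis: linear interpolation between bracketing concentrations; unreached endpoints set to highest concentration. At the GI50, growth is halved.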 Activity calls are given as the source filed them. Cut-off read from the data, not from the text of the source: active = GI50 up to about 1.1 µM and inactive = higher.
Assays:
Assay in all cases: DTP human tumour cell line panel, 48 h
[1] = system: Malme-3M
[2] = system: M14
[3] = system: SK-MEL-28
[4] = system: OVCAR-8
[5] = system: NCI-H460
[6] = system: LOX IMVI
[7] = system: OVCAR-4
[8] = system: NCI-H23
[9] = system: U-251
[10] = system: LXFL 529
[11] = system: HCC 2998
[12] = system: M19-MEL
[13] = system: HCT-116
[14] = system: DMS-114
[15] = system: SNB-78
[16] = system: HCT-15
[17] = system: CCRF-CEM
[18] = system: SW-620
[19] = system: SR

Row | SMILES | GI50 [1] | GI50 [2] | GI50 [3] | GI50 [4] | GI50 [5] | GI50 [6] | GI50 [7] | GI50 [8] | GI50 [9] | GI50 [10] | GI50 [11] | GI50 [12] | GI50 [13] | GI50 [14] | GI50 [15] | GI50 [16] | GI50 [17] | GI50 [18] | GI50 [19]
1 | C=CC1(C)CC(=O)C2(O)C(C)(O1)C(OC(C)=O)C(O)C1C(C)(C)CCC(O)C12C (stereo unspecified) | > 150 µM (inactive) | > 100 µM (inactive) | > 150 µM (inactive) | > 76.4 µM (inactive) | 89.1 µM (inactive) | 60.8 µM (inactive) | > 54.8 µM (inactive) | 115 µM (inactive) | 71 µM (inactive) | > 100 µM (inactive) | > 146 µM (inactive) | 104 µM (inactive) | 128 µM (inactive) | 52.8 µM (inactive) | 5.4 µM (inactive) | > 150 µM | 22.2 µM (inactive) | > 150 µM (inactive) | –
2 | CC1(C)S[C@H](c2ccccc2C(=O)O)N[C@@H]1CC(=O)O | – | > 100 µM (inactive) | > 100 µM (inactive) | > 100 µM (inactive) | > 100 µM (inactive) | > 100 µM (inactive) | > 100 µM (inactive) | > 100 µM (inactive) | > 100 µM (inactive) | > 100 µM (inactive) | – | > 100 µM (inactive) | > 100 µM (inactive) | > 100 µM (inactive) | > 100 µM (inactive) | > 100 µM | > 100 µM (inactive) | > 100 µM (inactive) | > 100 µM (inactive)
3 | O=C(/C=C/c1ccccc1Cl)c1ccccc1Cl | 31.8 µM (inactive) | 22.3 µM (inactive) | 19.1 µM (inactive) | 17.3 µM (inactive) | 19.2 µM (inactive) | – | 20.7 µM (inactive) | 21.2 µM (inactive) | 16.3 µM (inactive) | 17.2 µM (inactive) | 21.6 µM (inactive) | 25.8 µM (inactive) | 14.6 µM (inactive) | 19.9 µM (inactive) | 22.4 µM (inactive) | 14.8 µM | 20.4 µM (inactive) | 12.6 µM (inactive) | –
4 | c1ccc(C2=NN3CN(N2)c2ccccc2OCCCOc2ccccc23)cc1 | > 100 µM (inactive) | > 100 µM (inactive) | > 100 µM (inactive) | > 100 µM (inactive) | > 100 µM (inactive) | > 100 µM (inactive) | 77.6 µM (inactive) | > 100 µM (inactive) | > 100 µM (inactive) | > 100 µM (inactive) | – | > 100 µM (inactive) | > 100 µM (inactive) | > 100 µM (inactive) | > 100 µM (inactive) | > 100 µM | > 100 µM (inactive) | > 100 µM (inactive) | 92.7 µM (inactive)
5 | O=C(/C=C1\Nc2ccccc2C(=O)N1c1ccc(Cl)cc1)c1ccncc1 | 60.1 µM (inactive) | > 100 µM (inactive) | > 100 µM (inactive) | > 100 µM (inactive) | > 100 µM (inactive) | – | > 100 µM (inactive) | > 100 µM (inactive) | > 100 µM (inactive) | > 100 µM (inactive) | – | > 100 µM (inactive) | > 100 µM (inactive) | > 100 µM (inactive) | > 100 µM (inactive) | > 100 µM | > 100 µM (inactive) | > 100 µM (inactive) | > 100 µM (inactive)
6 | O=C(c1ccccc1)C1CCCCN1C(=O)c1ccccc1 (stereo unspecified) | > 100 µM (inactive) | > 100 µM (inactive) | > 100 µM (inactive) | > 100 µM (inactive) | > 100 µM (inactive) | – | > 100 µM (inactive) | – | > 100 µM (inactive) | > 100 µM (inactive) | > 100 µM (inactive) | > 100 µM (inactive) | > 100 µM (inactive) | > 100 µM (inactive) | > 100 µM (inactive) | > 100 µM | > 100 µM (inactive) | > 100 µM (inactive) | > 100 µM (inactive)
7 | C=CCNC1=NC(=O)C(CC(=O)Nc2ccc([N+](=O)[O-])cc2[N+](=O)[O-])S1 (stereo unspecified) | > 100 µM (inactive) | > 100 µM (inactive) | > 100 µM (inactive) | > 100 µM (inactive) | > 100 µM (inactive) | – | 95.7 µM (inactive) | > 100 µM (inactive) | > 100 µM (inactive) | > 100 µM (inactive) | > 100 µM (inactive) | > 100 µM (inactive) | > 100 µM (inactive) | 66.5 µM (inactive) | > 100 µM (inactive) | > 100 µM | > 100 µM (inactive) | > 100 µM (inactive) | –
8 | N#CC1C(C#N)C2(c3ccccc3)C(c3ccccc3)=NN(c3ccccc3)CC12 (stereo unspecified) | > 100 µM (inactive) | > 100 µM (inactive) | > 100 µM (inactive) | > 100 µM (inactive) | > 100 µM (inactive) | > 100 µM (inactive) | 95.3 µM (inactive) | – | > 100 µM (inactive) | > 100 µM (inactive) | > 100 µM (inactive) | > 100 µM (inactive) | > 100 µM (inactive) | 59.4 µM (inactive) | > 100 µM (inactive) | > 100 µM | > 100 µM (inactive) | > 100 µM (inactive) | > 100 µM (inactive)
9 | O=C(O)c1ccc(C2=Cc3cc(Cl)ccc3OC2)cc1 | > 100 µM (inactive) | > 100 µM (inactive) | > 100 µM (inactive) | > 100 µM (inactive) | > 100 µM (inactive) | > 100 µM (inactive) | – | > 100 µM (inactive) | > 100 µM (inactive) | > 100 µM (inactive) | > 100 µM (inactive) | > 100 µM (inactive) | > 100 µM (inactive) | > 100 µM (inactive) | > 100 µM (inactive) | > 100 µM | > 100 µM (inactive) | > 100 µM (inactive) | > 100 µM (inactive)
10 | CC(C)(C)OC(=O)N1N=NC2C3OC(CC3=O)C21 (stereo unspecified) | > 100 µM (inactive) | > 100 µM (inactive) | > 100 µM (inactive) | > 100 µM (inactive) | > 100 µM (inactive) | > 100 µM (inactive) | > 10 µM (inactive) | > 100 µM (inactive) | > 100 µM (inactive) | > 100 µM (inactive) | > 100 µM (inactive) | – | > 100 µM (inactive) | > 100 µM (inactive) | > 100 µM (inactive) | > 100 µM | 40.9 µM (inactive) | > 100 µM (inactive) | 77.4 µM (inactive)
11 | O=C(OCC1CO1)c1cccs1 (stereo unspecified) | > 100 µM (inactive) | > 100 µM (inactive) | > 100 µM (inactive) | > 100 µM (inactive) | > 100 µM (inactive) | > 100 µM (inactive) | > 100 µM (inactive) | > 100 µM (inactive) | – | > 100 µM (inactive) | > 100 µM (inactive) | > 100 µM (inactive) | – | > 100 µM (inactive) | > 100 µM (inactive) | > 100 µM | > 100 µM (inactive) | > 100 µM (inactive) | –
12 | O=C1C2C=CC(C2)C(c2ccc(O)cc2)N1O (stereo unspecified) | > 100 µM (inactive) | > 100 µM (inactive) | > 100 µM (inactive) | > 100 µM (inactive) | > 100 µM (inactive) | – | > 100 µM (inactive) | > 100 µM (inactive) | > 100 µM (inactive) | > 100 µM (inactive) | > 100 µM (inactive) | > 100 µM (inactive) | > 100 µM (inactive) | – | > 100 µM (inactive) | – | > 100 µM (inactive) | > 100 µM (inactive) | > 100 µM (inactive)
13 | COC(C(=O)NCCCCNC(=O)C(OC)c1ccccc1)c1ccccc1 (stereo unspecified) | > 100 µM (inactive) | > 100 µM (inactive) | > 100 µM (inactive) | > 100 µM (inactive) | > 100 µM (inactive) | > 100 µM (inactive) | > 100 µM (inactive) | > 100 µM (inactive) | > 100 µM (inactive) | > 100 µM (inactive) | – | > 100 µM (inactive) | > 100 µM (inactive) | > 100 µM (inactive) | > 100 µM (inactive) | > 100 µM | > 100 µM (inactive) | > 100 µM (inactive) | > 100 µM (inactive)
14 | COc1cc(/C=C\c2ccc(O)cc2)cc(OC)c1OC | 4.25 µM (inactive) | 22.2 µM (inactive) | 1.91 µM (inactive) | 6.95 µM (inactive) | 3.33 µM (inactive) | 5.19 µM (inactive) | 8.97 µM (inactive) | 0.505 µM (active) | 3.01 µM (inactive) | 4.18 µM (inactive) | > 23.3 µM (inactive) | 3.66 µM (inactive) | 3.96 µM (inactive) | 2.48 µM (inactive) | 3.96 µM (inactive) | 0.518 µM | 3.72 µM (inactive) | 2.65 µM (inactive) | –
15 | Cn1cnc([N+](=O)[O-])c1Sc1nc2ccccc2s1 | 1.84 µM (inactive) | 15.2 µM (inactive) | 9.1 µM (inactive) | 4.07 µM (inactive) | 12 µM (inactive) | 15.3 µM (inactive) | 3.01 µM (inactive) | 10.9 µM (inactive) | 11.7 µM (inactive) | 10.5 µM (inactive) | 10.2 µM (inactive) | 11.5 µM (inactive) | 5.47 µM (inactive) | 3.9 µM (inactive) | 12.7 µM (inactive) | 2.99 µM | – | 4 µM (inactive) | 3.48 µM (inactive)
16 | CC12CCC(CC1)C(C)(C)O2 [EUCALYPTOL] | 54.6 µM (inactive) | > 100 µM (inactive) | 62.4 µM (inactive) | 24.4 µM (inactive) | – | 7.43 µM (inactive) | 61.1 µM (inactive) | 16.9 µM (inactive) | 29.5 µM (inactive) | > 100 µM (inactive) | 26.4 µM (inactive) | 11.5 µM (inactive) | – | 24.4 µM (inactive) | 67.6 µM (inactive) | 12.1 µM | – | – | > 100 µM (inactive)

Reference: ChEMBL document CHEMBL1201862, “PubChem BioAssay data set” (2004)
